Patent US20250082584A1, “TRANSDERMAL THERAPEUTIC SYSTEM FOR THE TRANSDERMAL ADMINISTRATION OF SELEXIPAG” (LTS LOHMANN THERAPIE-SYSTEME AG, priority 2022, published 2025)

Assay: Permeation of Selexipag and active metabolite MRE-269 through fresh human skin in modified Keshary-Chien diffusion cells
Type: in vitro ADME
Protocol: For determination of Selexipag and the Selexipag derived active metabolite MRE-269 permeated from fresh human skin tissue the following experiment was performed.
Modified Keshary-Chien diffusion cells were used for this experiment, in which fresh human skin was used as barrier between the donor and the acceptor part. The acceptor compartment contained the acceptor medium (0.9% NaCl+3% Vanillin+0.5% Methyl-β-cyclodextrin+30% Acetonitrile in aqua purificata), the donor chamber contained a liquid solution of Selexipag in oleic acid, dipropylene glycol, ethanol and aqua purificata. The liquid solution Composition 1 was applied as suspension, with undissolved Selexipag, whereas Composition 2 was centrifuged prior to application and only the clear centrifugate was applied. The composition of the selexipag-containing coating Compositions 1 and 2 of are summarized below.
Fresh human skin from plastic surgery was used (upper arm, person). […]
The samples of acceptor solution were filtrated with syringe filters and analyzed with HPLC. Quantification of Selexipag was performed with an external standard. […]
After 168 hrs of permeation the diffusion cells were dismantled, and the skin was rinsed with aqua purificata to remove residuals of the liquid solutions. […] The extracts were then diluted with acceptor medium, filtrated and analyzed with HPLC analogue to the permeation samples.

CC(C)N(CCCCOCC(=O)O)c1cnc(-c2ccccc2)c(-c2ccccc2)n1 [MRE-269]
Onset of release of MRE-269 compared to Selexipag in acceptor medium (FIG. 7 vs FIG. 8) (fresh human skin, acceptor medium, cumulative data): starts slower | Detection of active metabolite MRE-269 in permeation samples and skin extraction samples (liquid Selexipag solutions (Compositions 1 and 2) on fresh human skin, 500 μm, 32° C., sampling 24-48-120-144-168 hrs, HPLC): detected at each sampling timepoint in all permeation samples as well as in the skin extraction samples
